Measured values as given in ChEMBL document CHEMBL1138425, “Beta-secretase (BACE-1) inhibitors: accounting for 10s loop flexibility using rigid active sites” (Bioorg Med Chem Lett, 2007).

Molecular target: Beta-secretase 1 (Homo sapiens, UniProt P56817)
Test: Inhibition of BACE1

Chain of Beta-secretase 1 (P56817 whole entry): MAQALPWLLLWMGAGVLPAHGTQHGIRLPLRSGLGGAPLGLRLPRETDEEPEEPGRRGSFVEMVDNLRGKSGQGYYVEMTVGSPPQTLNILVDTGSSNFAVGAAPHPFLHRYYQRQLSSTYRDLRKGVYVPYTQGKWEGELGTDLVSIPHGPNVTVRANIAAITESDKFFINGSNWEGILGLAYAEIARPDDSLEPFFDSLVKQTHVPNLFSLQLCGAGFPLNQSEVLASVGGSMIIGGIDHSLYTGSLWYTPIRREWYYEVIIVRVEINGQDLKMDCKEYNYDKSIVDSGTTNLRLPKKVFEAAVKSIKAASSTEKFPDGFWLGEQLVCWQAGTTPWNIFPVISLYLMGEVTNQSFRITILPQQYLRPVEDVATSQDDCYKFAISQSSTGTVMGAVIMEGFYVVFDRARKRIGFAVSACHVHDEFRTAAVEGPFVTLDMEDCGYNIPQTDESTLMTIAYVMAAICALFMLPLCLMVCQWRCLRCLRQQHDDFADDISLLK

| Compound | Ki (read-out: Ki) [µM] | Ki (read-out: Log Ki (converted)) [µM] |
| --- | --- | --- |
| CCCN(c1cc(/C=C\C2CC2C)cc(-c2nnc([C@](C)(N)Cc3ccccc3)o2)c1)S(C)(=O)=O (some centres undefined) | 0.0519 | 0.0501 |
| CC(C)C(=O)c1cc(-c2nnc([C@](C)(N)Cc3ccccc3)o2)cc(N(C)S(C)(=O)=O)c1 | 16.5 | 15.8 |
